Literature values as cited in PMC5051147, “Ester Hydrolysis Differentially Reduces Aconitine-Induced Anti-hypersensitivity and Acute Neurotoxicity: Involvement of Spinal Microglial Dynorphin Expression and Implications for Aconitum Processing” (Frontiers in Pharmacology, 2016).

Assays:
[1] = tested on: acetic acid and formalin tests; parameters: method as in Yu et al., 1996; details: systemic; ref Yu et al., 1996; cited from earlier work
rats = tested on: rats; parameters: method as in Zheng et al., 1994; details: subcutaneous, ref Zheng et al., 1994; cited from earlier work
mice = tested on: mice; parameters: method as in Zheng et al., 1994; details: subcutaneous, ref Zheng et al., 1994; cited from earlier work
[2] = parameters: method as in Zheng et al., 1994; details: intracerebroventricular injection; ref Zheng et al., 1994; cited from earlier work

Row | Compound | Antinociception compared with analogues [1] | ED50 relative to 3-acetylaconitine (times greater) (rats) | ED50 relative to 3-acetylaconitine (times greater) (mice) | Therapeutic index relative to 3-acetylaconitine [2]
1 | CCN1C[C@]2(COC)[C@H](O)C[C@H](OC)[C@]34C1[C@H]([C@H](OC)[C@H]23)[C@@]1(OC(C)=O)C[C@H](OC)[C@@]2(O)C[C@@H]4[C@@H]1[C@H]2OC(=O)c1ccc(OC)cc1 [yunaconitine] | greater antinociception than bulleyaconitine A and 3-acetylaconitine | – | – | –
2 | CCN1C[C@]2(COC)[C@H](OC(C)=O)C[C@H](OC)C34C1C([C@H](OC)[C@@H]32)[C@]1(O)[C@@H]2[C@H]4C[C@@](O)([C@@H]2OC(=O)c2ccccc2)[C@@H](OC)[C@@H]1OC(C)=O [3,15-diacetylbenzoylaconine] | – | 25–30 times | 12–16 times | three-fold higher
